# Reference: ChEMBL document CHEMBL6083255, “Synthesis and biological evaluation of novel isobenzofuran-1(3H)-one derivatives as antidepressant agents” (2024)
# Active and inactive are the calls of the source. No cut-off for these calls is given here.
# What was measured:
# [1] = tested on: Mus musculus; assay: Antidepressant activity in chronic restraint stress induced C57BL/6J mouse model assessed as increase in TrkB expression level at 10 mg/kg, po administered as prophylactic dose by Western blotting assay; type: functional, organism-based
# [2] = tested on: Mus musculus; assay: Antidepressant activity in chronic restraint stress induced C57BL/6J mouse model assessed as increase in PSD-95 expression level at 10 mg/kg, po administered as prophylactic dose by Western blotting assay; type: functional, organism-based
# [3] = tested on: Mus musculus; assay: Antidepressant activity in chronic restraint stress induced C57BL/6J mouse model assessed as increase in 5-HT level in prefrontal cortex at 10 to 50 mg/kg, po pretreated with CRS for 14 days followed by compound addition on day 15 by ELISA; type: functional, organism-based; settings: dose 10-50 mg/kg
# [4] = tested on: Mus musculus; assay: Antidepressant activity in chronic restraint stress induced C57BL/6J mouse model assessed as increase in BDNF expression level at 10 mg/kg, po administered as prophylactic dose by Western blotting assay; type: functional, organism-based
# [5] = tested on: Mus musculus; assay: Antidepressant activity in chronic restraint stress induced C57BL/6J mouse model assessed as increase in entries in open arm at 10 to 50 mg/kg, po pretreated with CRS for 14 days followed by compound addition on day 15 and measured after 31 days by elevated plus maze test; type: functional, organism-based; settings: dose 10-50 mg/kg, time 31.0 day
# [6] = tested on: Mus musculus; assay: Antidepressant activity in chronic restraint stress induced C57BL/6J mouse model assessed as increase in latency entries into center zone at 10 mg/kg, po administered as prophylactic dose and measured on day 29 by open field test; type: functional, organism-based; settings: time 29.0 day
# [7] = tested on: RBL-2H3; assay: Cytotoxicity against Wistar rat RBL-2H3 cells assessed as cell viability at 1 uM incubated for 24 hrs by MTT assay; type: functional; settings: read-out: Activity
# [8] = tested on: Mus musculus; assay: Antidepressant activity in chronic restraint stress induced C57BL/6J mouse model assessed as increase in total distance in center zone at 10 mg/kg, po administered as prophylactic dose and measured on day 29 by open field test; type: functional, organism-based; settings: time 29.0 day
# [9] = tested on: Mus musculus; assay: Antidepressant activity in chronic restraint stress induced C57BL/6J mouse model assessed as increase the time in center zone at 10 mg/kg, po administered as prophylactic dose and measured on day 29 by open field test; type: functional, organism-based; settings: time 29.0 day
# [10] = target: Sodium-dependent serotonin transporter (Rattus norvegicus) (UniProt P31652); assay: Inhibition of SERT in Wistar rat RBL-2H3 cells assessed as decrease in fluorescence intensity at 10 uM preincubated for 2 hrs followed by APP+ addition and measured after 1 hr by fluorescence based assay; type: cell-based; settings: time 3.0 hrs
# Chain of Sodium-dependent serotonin transporter (Rattus norvegicus) (P31652 whole entry): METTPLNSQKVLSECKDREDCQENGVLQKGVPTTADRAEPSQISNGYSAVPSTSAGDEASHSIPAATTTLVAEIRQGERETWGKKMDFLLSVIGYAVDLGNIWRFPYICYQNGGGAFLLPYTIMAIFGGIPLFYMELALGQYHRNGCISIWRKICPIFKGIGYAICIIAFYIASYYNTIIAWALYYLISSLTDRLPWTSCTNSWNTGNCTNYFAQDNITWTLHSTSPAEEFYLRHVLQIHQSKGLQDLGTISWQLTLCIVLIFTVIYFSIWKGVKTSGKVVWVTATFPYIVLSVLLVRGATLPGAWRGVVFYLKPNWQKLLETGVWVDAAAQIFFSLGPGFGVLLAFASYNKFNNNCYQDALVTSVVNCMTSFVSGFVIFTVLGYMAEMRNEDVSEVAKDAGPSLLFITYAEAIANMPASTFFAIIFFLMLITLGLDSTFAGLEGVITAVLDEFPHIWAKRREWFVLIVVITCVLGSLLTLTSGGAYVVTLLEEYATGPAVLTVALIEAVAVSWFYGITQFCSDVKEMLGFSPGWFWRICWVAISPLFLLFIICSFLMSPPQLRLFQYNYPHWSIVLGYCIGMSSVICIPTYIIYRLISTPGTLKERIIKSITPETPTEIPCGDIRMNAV
# [11] = tested on: Mus musculus; assay: Antidepressant activity in chronic restraint stress induced C57BL/6J mouse model assessed as increase in distance in open arm at 10 to 50 mg/kg, po pretreated with CRS for 14 days followed by compound addition on day 15 and measured after 31 days by elevated plus maze test; type: functional, organism-based; settings: dose 10-50 mg/kg, time 31.0 day
# [12] = tested on: Mus musculus; assay: Antidepressant activity in chronic restraint stress induced C57BL/6J mouse model assessed as rescue of normal neurons at 10 mg/kg, po administered as prophylactic dose by Nissl staining based optical microscopic assay; type: functional, organism-based
# [13] = tested on: Mus musculus; assay: Antidepressant activity in chronic restraint stress induced C57BL/6J mouse model assessed as rescue of normal neurons at 10 to 50 mg/kg, po pretreated with CRS for 14 days followed by compound addition on day 15 by Nissl staining based optical microscopic assay; type: functional, organism-based; settings: dose 10-50 mg/kg
# [14] = tested on: RBL-2H3; assay: Cytotoxicity against Wistar rat RBL-2H3 cells assessed as cell viability at 5 uM incubated for 24 hrs by MTT assay; type: functional; settings: read-out: Activity
# [15] = tested on: Mus musculus; assay: Antidepressant activity in chronic restraint stress induced C57BL/6J mouse model assessed as increase in distance in open arm at 10 mg/kg, po administered as prophylactic dose and measured on day 31 by elevated plus maze test; type: functional, organism-based; settings: time 31.0 day
# [16] = tested on: Mus musculus; assay: Antidepressant activity in chronic restraint stress induced C57BL/6J mouse model assessed as increase in hippocampus TPH2 protein expression at 10 mg/kg, po administered as prophylactic dose by Western blotting analysis; type: functional, organism-based
# [17] = tested on: RBL-2H3; assay: Cytotoxicity against Wistar rat RBL-2H3 cells assessed as cell viability at 25 uM incubated for 24 hrs by MTT assay; type: functional; settings: read-out: Activity
# [18] = tested on: CHO-K1; assay: Antagonist activity at mu opioid receptor in CHO-K1 cells assessed as intracellular fluorescence intensity at 50 uM incubated for 2 mins by microplate reader assay; type: cell-based; settings: Cricetulus griseus
# [19] = tested on: CHO-K1; assay: Agonist activity at CCK-B receptor in CHO-K1 cells incubated for 90 sec by microplate reader assay; type: cell-based; settings: Cricetulus griseus
# [20] = tested on: Mus musculus; assay: Antidepressant activity in chronic restraint stress induced C57BL/6J mouse model assessed as increase in Bcl2/Bax level at 10 mg/kg, po administered as prophylactic dose by Western blotting assay; type: functional, organism-based
# [21] = tested on: Mus musculus; assay: Antidepressant activity in C57BL/6J mouse assessed as reduction in CRS induced body weight loss at 10 to 50 mg/kg, po pretreated with CRS for 14 days followed by compound addition on day 15 and measured upto 28 days; type: functional, organism-based; settings: dose 10-50 mg/kg, time <= 28.0 day
# [22] = tested on: Mus musculus; assay: Antidepressant activity in chronic restraint stress induced C57BL/6J mouse model assessed as increase in spinophilin positive cells in cortex at 10 to 50 mg/kg, po pretreated with CRS for 14 days followed by compound addition on day 15 by immunohistochemistry assay; type: functional, organism-based; settings: dose 10-50 mg/kg
# [23] = tested on: Mus musculus; assay: Antidepressant activity in chronic restraint stress induced C57BL/6J mouse model assessed as increase in entries in open arm at 10 mg/kg, po administered as prophylactic dose and measured on day 31 by elevated plus maze test; type: functional, organism-based; settings: time 31.0 day
# [24] = tested on: Mus musculus; assay: Antidepressant activity in chronic restraint stress induced C57BL/6J mouse model assessed as increase in spinophilin positive cells in cortex at 10 mg/kg, po administered as prophylactic dose by immunohistochemistry assay; type: functional, organism-based
# [25] = tested on: Mus musculus; assay: Antidepressant activity in chronic restraint stress induced C57BL/6J mouse model assessed as reduction in immobility time at 10 to 50 mg/kg, po pretreated with CRS for 14 days followed by compound addition on day 15 and measured after 30 days by force swimming test; type: functional, organism-based; settings: dose 10-50 mg/kg, time 30.0 day
# [26] = tested on: Mus musculus; assay: Antidepressant activity in chronic restraint stress induced C57BL/6J mouse model assessed as reduction in immobility time at 10 mg/kg, po administered as prophylactic dose and measured on day 30 by force swimming test; type: functional, organism-based; settings: time 30.0 day
# [27] = tested on: Mus musculus; assay: Antidepressant activity in chronic restraint stress induced C57BL/6J mouse model assessed as increase in time in open arm at 10 mg/kg, po administered as prophylactic dose and measured on day 31 by elevated plus maze test; type: functional, organism-based; settings: time 31.0 day
# [28] = tested on: Mus musculus; assay: Antidepressant activity in chronic restraint stress induced C57BL/6J mouse model assessed as increase the time in center zone at 10 to 50 mg/kg, po pretreated with CRS for 14 days followed by compound addition on day 15 and measured after 29 days by open field test; type: functional, organism-based; settings: dose 10-50 mg/kg, time 29.0 day
# [29] = tested on: Mus musculus; assay: Antidepressant activity in C57BL/6J mouse assessed as reduction in CRS induced body weight loss at 10 mg/kg, po administered as prophylactic dose and measured upto 28 days; type: functional, organism-based; settings: time <= 28.0 day
# [30] = tested on: Mus musculus; assay: Antidepressant activity in chronic restraint stress induced C57BL/6J mouse model assessed as increase in total distance in center zone at 10 to 50 mg/kg, po pretreated with CRS for 14 days followed by compound addition on day 15 and measured after 29 days by open field test; type: functional, organism-based; settings: dose 10-50 mg/kg, time 29.0 day
# [31] = tested on: Mus musculus; assay: Antidepressant activity in chronic restraint stress induced C57BL/6J mouse model assessed as increase in 5-HT level in prefrontal cortex at 10 mg/kg, po administered as prophylactic dose by ELISA; type: functional, organism-based
# [32] = tested on: Mus musculus; assay: Antidepressant activity in chronic restraint stress induced C57BL/6J mouse model assessed as increase in latency entries into center zone at 10 to 50 mg/kg, po pretreated with CRS for 14 days followed by compound addition on day 15 and measured after 29 days by open field test; type: functional, organism-based; settings: dose 10-50 mg/kg, time 29.0 day
# [33] = tested on: CHO-K1; assay: Agonist activity at mu opioid receptor in CHO-K1 cells assessed as increase in intracellular fluorescence intensity at 50 uM incubated for 90 sec by microplate reader assay; type: cell-based; settings: Cricetulus griseus
# [34] = tested on: Mus musculus; assay: Antidepressant activity in chronic restraint stress induced C57BL/6J mouse model assessed as increase in time in open arm at 10 to 50 mg/kg, po pretreated with CRS for 14 days followed by compound addition on day 15 and measured after 31 days by elevated plus maze test; type: functional, organism-based; settings: dose 10-50 mg/kg, time 31.0 day
# [35] = tested on: CHO-K1; assay: Antagonist activity at CCK-B receptor in CHO-K1 cells at 50 uM incubated for 90 sec by microplate reader assay; type: cell-based; settings: Cricetulus griseus
# [36] = tested on: RBL-2H3; assay: Cytotoxicity against Wistar rat RBL-2H3 cells assessed as cell viability at 125 uM incubated for 24 hrs by MTT assay; type: functional; settings: read-out: Activity
smiles,measurement,setting,value
CCN(CC)CC1(c2ccc(Cl)cc2)OC(=O)c2ccccc21 (stereo unspecified),Activity,[1],Active
same,Activity,[2],Active
same,Activity,[3],Active
same,Activity,[4],Active
same,Activity,[5],Active
same,Activity,[6],Active
same,viability at 1 µM,[7],105%
same,Activity,[8],Active
same,Activity,[9],Active
same,Activity,[10],Active; Activity Stronger Than Fluoxetine
same,Activity,[11],Active
same,Activity,[12],Active
same,Activity,[13],Active
same,viability at 5 µM,[14],107%
same,Activity,[15],Active
same,Activity,[16],Active
same,viability at 25 µM,[17],117%
same,Activity,[18],inactive
same,Activity,[19],inactive
same,Activity,[20],Active
same,Activity,[21],Active
same,Activity,[22],Active
same,Activity,[23],Active
same,Activity,[24],Active
same,Activity,[25],Active
same,Activity,[26],Active
same,Activity,[27],Active
same,Activity,[28],Active
same,Activity,[29],Active
same,Activity,[30],Active
same,Activity,[31],Active
same,Activity,[32],Active
same,Activity,[33],inactive
same,Activity,[34],Active
same,Activity,[35],inactive
same,viability at 125 µM,[36],132%
